Measured values reported in ChEMBL document CHEMBL4368904 (J Med Chem, 2019).
Active and inactive are the calls of the source. The rule behind the calls is not given here.

Assays:
Adenosine receptor A3 [1] = biological target: T1, Adenosine receptor A3 (Mus musculus, UniProt Q61618); assay: Displacement of [125I]N6-(4-amino-3-iodobenzyl)adenosine-5-N-methyluronamide from mouse A3A adenosine receptor expressed in CHO cell membranes after 60 mins by scintillation proximity assay
T1 sequence (Q61618 whole entry): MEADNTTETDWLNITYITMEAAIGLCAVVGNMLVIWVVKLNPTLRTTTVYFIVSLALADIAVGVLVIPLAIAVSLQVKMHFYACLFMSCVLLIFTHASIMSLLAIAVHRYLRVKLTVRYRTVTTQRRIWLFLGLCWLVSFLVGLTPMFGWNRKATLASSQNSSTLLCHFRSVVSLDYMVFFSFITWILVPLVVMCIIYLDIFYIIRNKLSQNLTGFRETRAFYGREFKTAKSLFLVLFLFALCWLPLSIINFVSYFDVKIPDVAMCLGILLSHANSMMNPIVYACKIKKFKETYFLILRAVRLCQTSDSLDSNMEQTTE

[2] = biological target: Sigma non-opioid intracellular receptor 1 (Homo sapiens, UniProt Q99720); assay: Inhibition of sigma receptor 1 (unknown origin)
Chain of Sigma non-opioid intracellular receptor 1 (Q99720 whole entry): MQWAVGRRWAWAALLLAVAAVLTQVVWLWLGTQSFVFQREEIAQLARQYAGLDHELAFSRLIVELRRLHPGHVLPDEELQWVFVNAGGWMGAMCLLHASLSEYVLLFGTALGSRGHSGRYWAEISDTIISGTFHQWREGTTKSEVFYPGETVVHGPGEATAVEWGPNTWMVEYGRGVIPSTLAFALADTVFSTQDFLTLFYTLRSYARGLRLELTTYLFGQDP

[3] = biological target: Sigma intracellular receptor 2 (Homo sapiens, UniProt Q5BJF2); assay: Inhibition of sigma receptor 2 (unknown origin)
Chain of Sigma intracellular receptor 2 (Q5BJF2 whole entry): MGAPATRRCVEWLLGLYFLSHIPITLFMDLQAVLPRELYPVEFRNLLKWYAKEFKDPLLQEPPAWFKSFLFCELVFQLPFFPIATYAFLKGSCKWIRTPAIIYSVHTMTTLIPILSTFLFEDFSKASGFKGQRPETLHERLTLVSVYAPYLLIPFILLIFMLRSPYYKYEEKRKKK

Adenosine receptor A2a [4] = biological target: T2, Adenosine receptor A2a (Homo sapiens, UniProt P29274); assay: Displacement of [3H]2-[p-(2-carboxyethyl)phenylethylamino]-5-N-ethylcarboxamidoadenosine from human A2A adenosine receptor expressed in HEK293 cell membranes after 60 mins by scintillation proximity assay
T2 sequence (P29274 whole entry): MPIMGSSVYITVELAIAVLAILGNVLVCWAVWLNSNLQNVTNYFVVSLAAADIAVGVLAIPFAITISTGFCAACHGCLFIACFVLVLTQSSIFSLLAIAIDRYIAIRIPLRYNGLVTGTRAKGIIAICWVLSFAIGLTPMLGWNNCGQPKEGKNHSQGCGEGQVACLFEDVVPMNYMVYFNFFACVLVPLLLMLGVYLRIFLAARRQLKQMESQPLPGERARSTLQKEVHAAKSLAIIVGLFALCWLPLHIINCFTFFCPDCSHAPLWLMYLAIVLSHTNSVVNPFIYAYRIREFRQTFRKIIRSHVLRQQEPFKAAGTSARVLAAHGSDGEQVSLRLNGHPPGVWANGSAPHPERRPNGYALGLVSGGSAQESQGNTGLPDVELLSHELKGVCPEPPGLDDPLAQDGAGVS

[5] = biological target: 5-hydroxytryptamine receptor 7 (Homo sapiens, UniProt P34969); assay: Inhibition of 5HT7R (unknown origin)
Chain of 5-hydroxytryptamine receptor 7 (P34969 whole entry): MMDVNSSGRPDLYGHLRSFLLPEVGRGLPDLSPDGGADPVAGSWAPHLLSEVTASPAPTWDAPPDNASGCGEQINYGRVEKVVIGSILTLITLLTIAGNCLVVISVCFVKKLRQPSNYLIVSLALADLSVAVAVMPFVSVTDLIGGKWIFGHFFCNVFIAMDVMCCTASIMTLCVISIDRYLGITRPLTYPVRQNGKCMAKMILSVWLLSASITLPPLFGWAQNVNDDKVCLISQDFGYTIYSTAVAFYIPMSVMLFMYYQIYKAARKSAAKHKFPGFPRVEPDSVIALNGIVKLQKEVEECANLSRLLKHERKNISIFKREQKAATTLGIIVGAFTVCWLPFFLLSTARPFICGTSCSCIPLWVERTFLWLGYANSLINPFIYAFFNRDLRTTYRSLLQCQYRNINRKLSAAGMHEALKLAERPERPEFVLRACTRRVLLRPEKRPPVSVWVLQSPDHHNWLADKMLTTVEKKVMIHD

Adenosine receptor A3 [6] = biological target: T3, Adenosine receptor A3 (Homo sapiens, UniProt P0DMS8); assay: Displacement of [125I]N6-(4-amino-3-iodobenzyl)adenosine-5-N-methyluronamide from human A3A adenosine receptor expressed in CHO cell membranes after 60 mins by scintillation proximity assay
T3 sequence (P0DMS8 whole entry): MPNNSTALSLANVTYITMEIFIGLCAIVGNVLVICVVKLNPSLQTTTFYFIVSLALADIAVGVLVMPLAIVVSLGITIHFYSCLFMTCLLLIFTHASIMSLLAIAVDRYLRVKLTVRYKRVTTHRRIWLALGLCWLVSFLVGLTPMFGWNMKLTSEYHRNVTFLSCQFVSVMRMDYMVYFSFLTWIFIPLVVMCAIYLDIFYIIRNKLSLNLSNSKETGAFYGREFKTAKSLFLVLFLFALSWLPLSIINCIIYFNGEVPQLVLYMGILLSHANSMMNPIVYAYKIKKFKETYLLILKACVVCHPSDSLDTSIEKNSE

[7] = biological target: T4, Adenosine receptor A1 (Mus musculus) (UniProt Q60612); assay: Agonist activity at mouse A1A adenosine receptor at 10 uM after 60 mins by [35S]GTPgammaS binding assay relative to (2S,3S,4R,5R)-5-(6-amino-9H-purin-9-yl)-N-ethyl-3,4-dihydroxytetrahydrofuran-2-carboxamide; assay type: functional
T4 sequence (whole entry): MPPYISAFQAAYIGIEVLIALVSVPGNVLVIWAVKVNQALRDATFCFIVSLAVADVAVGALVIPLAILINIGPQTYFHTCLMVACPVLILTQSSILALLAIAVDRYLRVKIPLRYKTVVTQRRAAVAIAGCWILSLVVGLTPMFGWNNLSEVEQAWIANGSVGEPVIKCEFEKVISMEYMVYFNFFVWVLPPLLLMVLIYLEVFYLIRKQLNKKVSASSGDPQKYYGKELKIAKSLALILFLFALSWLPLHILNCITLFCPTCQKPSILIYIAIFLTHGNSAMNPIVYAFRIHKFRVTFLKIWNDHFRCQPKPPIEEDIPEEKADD

Mus musculus [8] = assay: Induction of hypothermia in C57BL/6J mouse assessed as body temperature at […], icv measured up to 120 mins post dose; assay type: functional, organism-based
[9] = biological target: T5, Adenosine receptor A3 (Mus musculus) (UniProt Q61618); assay: Agonist activity at mouse A3AR adenosine receptor at 10 uM after 60 mins by [35S]GTPgammaS binding assay relative to (2S,3S,4R,5R)-5-(6-amino-9H-purin-9-yl)-N-ethyl-3,4-dihydroxytetrahydrofuran-2-carboxamide; assay type: functional
T5 sequence (whole entry): T1 sequence (Q61618 whole entry)

Mus musculus [10] = species: Mus musculus; assay: Selectivity index, ratio of Ki for mouse A3A adenosine receptor to Ki for mouse A1A adenosine receptor expressed in CHO cell membranes after 60 mins by scintillation proximity assay
Mus musculus [11] = assay: Induction of hypothermia in C57BL/6J mouse assessed as body temperature at 3 mg/kg, ip measured at 60 mins post dose (reference value: 36.3 +/- 0.8 degC); assay type: functional
[12] = biological target: T6, Adenosine receptor A3 (Homo sapiens) (UniProt P0DMS8); assay: Displacement of [125I]N6-(4-amino-3-iodobenzyl)adenosine-5-N-methyluronamide from human A3A adenosine receptor expressed in CHO cell membranes at 10 uM after 60 mins by scintillation proximity assay relative to adenosine 5-N-ethyluronamide
T6 sequence (whole entry): T3 sequence (P0DMS8 whole entry)

Adenosine receptor A2a [13] = biological target: T2, Adenosine receptor A2a; assay: Displacement of [3H]2-[p-(2-carboxyethyl)phenylethylamino]-5-N-ethylcarboxamidoadenosine from human A2A adenosine receptor expressed in HEK293 cell membranes at 10 uM after 60 mins by scintillation proximity assay relative to adenosine 5-N-ethyluronamide
Mus musculus [14] = assay: Induction of hypothermia in C57BL/6J mouse assessed as activity counts at 3 mg/kg, ip measured at 60 mins post dose (reference value: 15.5 +/- 5.5); assay type: functional
[15] = Fraction unbound in mouse plasma at 10 uM; assay type: ADME, cell-free
[16] = Fraction unbound in human plasma at 10 uM; assay type: ADME, cell-free
[17] = Inhibition of rat benzodiazepine receptor
Mus musculus [18] = assay: Induction of hypothermia in C57BL/6J mouse assessed as body temperature at […], icv measured after 10 hrs post dose; assay type: functional, organism-based
[19] = Fraction unbound in rat plasma at 10 uM; assay type: ADME, cell-free
[20] = biological target: Sodium-dependent noradrenaline transporter (Homo sapiens, UniProt P23975); assay: Inhibition of NET (unknown origin)
Chain of Sodium-dependent noradrenaline transporter (P23975 whole entry): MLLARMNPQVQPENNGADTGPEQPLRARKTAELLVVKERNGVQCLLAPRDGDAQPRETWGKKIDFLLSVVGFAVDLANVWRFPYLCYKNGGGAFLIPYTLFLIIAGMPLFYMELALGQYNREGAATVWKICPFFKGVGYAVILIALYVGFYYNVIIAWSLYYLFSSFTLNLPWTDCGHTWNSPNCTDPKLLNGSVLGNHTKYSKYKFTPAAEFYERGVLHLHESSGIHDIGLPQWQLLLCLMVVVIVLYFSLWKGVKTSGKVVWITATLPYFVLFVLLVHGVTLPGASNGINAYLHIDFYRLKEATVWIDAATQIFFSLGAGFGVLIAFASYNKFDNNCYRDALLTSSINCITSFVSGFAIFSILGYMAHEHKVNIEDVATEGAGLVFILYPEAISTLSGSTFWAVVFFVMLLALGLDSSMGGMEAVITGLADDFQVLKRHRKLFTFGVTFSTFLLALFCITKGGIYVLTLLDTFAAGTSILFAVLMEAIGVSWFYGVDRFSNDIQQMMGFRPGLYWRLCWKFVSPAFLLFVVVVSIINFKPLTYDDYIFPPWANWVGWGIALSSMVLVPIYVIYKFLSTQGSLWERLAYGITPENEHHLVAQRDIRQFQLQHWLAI

Adenosine receptor A1 [21] = biological target: T7, Adenosine receptor A1 (Mus musculus, UniProt Q60612); assay: Displacement of [3H]N6-R-phenylisopropyladenosine from mouse A1A adenosine receptor expressed in CHO cell membranes after 60 mins by scintillation proximity assay
T7 sequence (Q60612 whole entry): T4 sequence (whole entry)

[22] = biological target: Adenosine receptor A2a (Mus musculus) (UniProt Q60613); assay: Displacement of [3H]2-[p-(2-carboxyethyl)phenylethylamino]-5-N-ethylcarboxamidoadenosine from mouse A2A adenosine receptor expressed in HEK293 cell membranes at 10 uM after 60 mins by scintillation proximity assay relative to adenosine 5-N-ethyluronamide
Chain of Adenosine receptor A2a (Mus musculus) (Q60613 whole entry): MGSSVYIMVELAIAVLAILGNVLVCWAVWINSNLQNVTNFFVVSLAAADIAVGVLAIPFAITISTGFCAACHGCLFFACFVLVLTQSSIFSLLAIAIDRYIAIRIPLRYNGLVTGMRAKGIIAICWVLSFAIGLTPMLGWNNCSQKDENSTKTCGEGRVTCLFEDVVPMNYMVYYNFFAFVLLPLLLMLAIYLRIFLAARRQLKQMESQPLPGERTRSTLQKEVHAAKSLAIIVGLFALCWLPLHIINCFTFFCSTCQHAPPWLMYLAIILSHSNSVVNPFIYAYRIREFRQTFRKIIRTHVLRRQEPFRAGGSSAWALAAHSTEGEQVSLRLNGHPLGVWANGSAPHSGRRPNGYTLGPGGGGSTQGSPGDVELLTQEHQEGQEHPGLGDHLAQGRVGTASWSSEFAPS

Adenosine receptor A1 [23] = biological target: T8, Adenosine receptor A1 (Homo sapiens, UniProt P30542); assay: Displacement of [3H]N6-R-phenylisopropyladenosine from human A1A adenosine receptor expressed in CHO cell membranes after 60 mins by scintillation proximity assay
T8 sequence (P30542 whole entry): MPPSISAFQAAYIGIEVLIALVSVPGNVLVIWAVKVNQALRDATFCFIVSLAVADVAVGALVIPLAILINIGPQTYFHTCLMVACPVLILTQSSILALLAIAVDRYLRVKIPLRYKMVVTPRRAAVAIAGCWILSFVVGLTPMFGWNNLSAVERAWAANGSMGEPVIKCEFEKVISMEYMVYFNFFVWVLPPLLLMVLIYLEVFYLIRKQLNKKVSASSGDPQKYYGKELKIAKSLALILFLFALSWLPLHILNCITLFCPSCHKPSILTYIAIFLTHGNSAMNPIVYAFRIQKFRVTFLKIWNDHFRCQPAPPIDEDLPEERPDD

Mus musculus [24] = assay: Induction of hypothermia in A1AR/A3AR knock out C57BL/6J mouse assessed as effect on body temperature at 3 mg/kg, ip measured at 60 mins post dose; assay type: functional, organism-based
[25] = biological target: 5-hydroxytryptamine receptor 2B (Homo sapiens, UniProt P41595); assay: Inhibition of 5HT2B (unknown origin)
Chain of 5-hydroxytryptamine receptor 2B (P41595 whole entry): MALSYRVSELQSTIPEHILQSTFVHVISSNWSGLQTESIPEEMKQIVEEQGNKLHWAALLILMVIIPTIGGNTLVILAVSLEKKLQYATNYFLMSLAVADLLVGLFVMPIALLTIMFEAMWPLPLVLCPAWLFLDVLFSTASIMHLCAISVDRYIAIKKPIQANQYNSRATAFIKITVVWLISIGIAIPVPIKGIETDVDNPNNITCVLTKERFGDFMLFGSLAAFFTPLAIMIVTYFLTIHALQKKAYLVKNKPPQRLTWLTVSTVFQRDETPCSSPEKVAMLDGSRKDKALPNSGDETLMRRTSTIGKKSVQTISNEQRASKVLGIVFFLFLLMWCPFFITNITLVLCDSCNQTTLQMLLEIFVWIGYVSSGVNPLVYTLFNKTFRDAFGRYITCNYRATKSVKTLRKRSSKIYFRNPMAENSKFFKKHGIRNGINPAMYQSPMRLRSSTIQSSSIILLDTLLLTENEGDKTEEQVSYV

Mus musculus [26] = assay: Induction of hypothermia in A3AR knock out C57BL/6J mouse assessed as effect on body temperature at 3 mg/kg, ip measured at 60 mins post dose; assay type: functional, organism-based
Mus musculus [27] = assay: Induction of hypothermia in A1AR knock out C57BL/6J mouse assessed as effect on body temperature at 3 mg/kg, ip measured at 60 mins post dose; assay type: functional, organism-based
[28] = biological target: 5-hydroxytryptamine receptor 5A (Homo sapiens, UniProt P47898); assay: Inhibition of 5HT5A (unknown origin)
Chain of 5-hydroxytryptamine receptor 5A (P47898 whole entry): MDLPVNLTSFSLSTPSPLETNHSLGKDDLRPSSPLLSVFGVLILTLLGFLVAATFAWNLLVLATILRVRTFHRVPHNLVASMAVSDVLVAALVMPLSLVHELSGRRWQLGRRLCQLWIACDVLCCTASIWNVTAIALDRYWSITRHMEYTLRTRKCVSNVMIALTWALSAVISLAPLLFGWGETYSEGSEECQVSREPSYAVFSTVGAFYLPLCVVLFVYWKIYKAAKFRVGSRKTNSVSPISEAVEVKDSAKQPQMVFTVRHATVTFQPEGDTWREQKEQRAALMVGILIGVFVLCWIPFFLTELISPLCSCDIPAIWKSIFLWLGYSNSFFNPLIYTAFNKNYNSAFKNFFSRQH

[29] = biological target: T9, Adenosine receptor A1 (Homo sapiens) (UniProt P30542); assay: Displacement of [3H]N6-R-phenylisopropyladenosine from human A1A adenosine receptor expressed in CHO cell membranes at 10 uM after 60 mins by scintillation proximity assay relative to adenosine 5-N-ethyluronamide
T9 sequence (whole entry): T8 sequence (P30542 whole entry)

Histamine H2 receptor = Histamine H2 receptor (Homo sapiens, UniProt P25021); assay: Inhibition of histamine H2 receptor (unknown origin)
Chain of Histamine H2 receptor (P25021 whole entry): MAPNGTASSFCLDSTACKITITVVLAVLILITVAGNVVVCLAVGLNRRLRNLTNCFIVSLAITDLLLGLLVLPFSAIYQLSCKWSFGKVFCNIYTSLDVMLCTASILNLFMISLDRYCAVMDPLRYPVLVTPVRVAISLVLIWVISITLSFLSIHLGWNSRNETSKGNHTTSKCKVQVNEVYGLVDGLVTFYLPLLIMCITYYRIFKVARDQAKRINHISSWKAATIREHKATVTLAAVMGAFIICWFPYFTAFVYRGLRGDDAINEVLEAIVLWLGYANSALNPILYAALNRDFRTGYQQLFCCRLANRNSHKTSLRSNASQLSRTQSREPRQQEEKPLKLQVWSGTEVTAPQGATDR

Structure (SMILES) | Ki (Adenosine receptor A3 [1]) [nM] | Ki [3] [nM] | Ki (Adenosine receptor A2a [4]) [nM] | Ki (Adenosine receptor A3 [6]) [nM] | Emax [7] [%] | Emax [9] [%] | Ratio Ki (Mus musculus [10]) | T (Mus musculus [11]) [°C] | inhibition [12] [%] | inhibition (Adenosine receptor A2a [13]) [%] | Activity (Mus musculus [14]) | Fu [15] [%] | Fu [16] [%] | Fu [19] [%] | other results
O[C@@H]1[C@H](O)[C@@H](CCl)O[C@H]1n1cnc2c(N[C@H]3C[C@H]4CC[C@@H]3C4)ncnc21 | 1560 | 432 | 2050 | 355 |  |  |  |  |  |  |  |  |  |  | Ki [2]: 484 nM; Ki [5]: 1240 nM
OC[C@@]12C[C@@H]1[C@@H](n1cnc3c(NC(C4CCC4)C4CCC4)ncnc31)[C@H](O)[C@@H]2O |  | 753 |  |  | 97 | 92 | 1730 | 36.2 | 51 | 34 | 18.1 | 27.5 | 14.6 | 17.8 | Activity (Mus musculus [8]): Active; Ki [17]: 4080 nM; Activity (Mus musculus [18]): Active
OC[C@@]12C[C@@H]1[C@@H](n1cnc3c(N[C@H]4C[C@H]5CC[C@@H]4C5)nc(Cl)nc31)[C@H](O)[C@@H]2O | 574 |  | 4260 | 288 | 104 | 62 | 547 | 33.4 |  |  | 10 | 7.68 | 9.75 | 6.59 | Ki [20]: 5740 nM; Ki (Adenosine receptor A1 [21]): 1.05 nM; inhibition [22]: 15%; Ki (Adenosine receptor A1 [23]): 23.6 nM; Activity (Mus musculus [24]): inactive; Ki [25]: 472 nM; Activity (Mus musculus [26]): inactive; Activity (Mus musculus [27]): inactive
CCOC(=O)[C@@]12C[C@@H]1[C@@H](n1cnc3c(NC(C4CC4)C4CC4)nc(Cl)nc31)[C@@H]1OC(C)(C)O[C@@H]12 |  |  |  |  |  |  |  |  | 41 | 15 |  |  |  |  | Ki [28]: 8690 nM; inhibition [29]: 49%; Ki (Histamine H2 receptor): 6380 nM
